In patent publication US11434242B2, “Dopamine-b-hydroxylase inhibitors” (BIAL-PORTELA & Cª, S.A., priority 2017, dated 2022):
Marks after values point to notes of the source that are not given here.

Molecular target: T1, Dopamine beta hydroxylase (Homo sapiens, UniProt P09172)
T1 construct: 125 μl of plasma; tissue Instituto Português do Sangue Transplantação; host or cells: human plasma from healthy donors
T1 sequence (P09172 40-617 limits assumed): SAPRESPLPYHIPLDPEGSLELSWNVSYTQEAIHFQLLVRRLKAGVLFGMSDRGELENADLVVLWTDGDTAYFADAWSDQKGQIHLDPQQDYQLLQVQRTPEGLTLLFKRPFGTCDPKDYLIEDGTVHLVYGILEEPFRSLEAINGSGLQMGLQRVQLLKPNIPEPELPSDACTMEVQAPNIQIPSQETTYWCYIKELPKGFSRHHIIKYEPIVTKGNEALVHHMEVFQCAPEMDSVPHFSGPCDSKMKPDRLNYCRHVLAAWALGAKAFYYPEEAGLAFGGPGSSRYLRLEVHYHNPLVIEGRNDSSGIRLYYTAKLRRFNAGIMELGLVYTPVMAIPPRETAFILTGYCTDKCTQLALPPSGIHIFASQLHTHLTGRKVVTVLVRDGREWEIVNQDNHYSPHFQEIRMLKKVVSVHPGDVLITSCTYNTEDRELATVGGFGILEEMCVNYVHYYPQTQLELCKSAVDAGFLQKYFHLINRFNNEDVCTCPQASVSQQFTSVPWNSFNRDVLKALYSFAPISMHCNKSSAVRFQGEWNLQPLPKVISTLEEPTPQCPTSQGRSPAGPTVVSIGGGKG
Test: Dopamine beta hydroxylase activity in human plasma
Type: biochemical
Details: for Plasma (1 μM), activity in % of control: inhibitor 1 μM
Summary of the method: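 Octopamine production from tyramine over 45 min at 37° C, measured photometrically at 330 nm after SCX extraction and periodate oxidation against an octopamine standard curve, indicates plasma DβH activity. Compounds tested at final 10, 100 and 1000 nM in human plasma, pH 5.0 cofactor buffer, 10 min preincubation; results as % of control.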

Structure (SMILES)	Plasma (0.01 μM), activity in % of control (inhibitor 0.01 μM)	Plasma (0.1 μM), activity in % of control (inhibitor 0.1 μM)	Plasma (1 μM), activity in % of control	Plasma (0.01 μM), activity in % of control, re-test (asterisked) (inhibitor 0.01 μM, re-tested under the same experimental conditions, asterisked data believed to be correct)	Plasma (0.1 μM), activity in % of control, re-test (asterisked) (inhibitor 0.1 μM, re-tested under the same experimental conditions, asterisked data believed to be correct)
Cn1c(CCC(=O)N2CCOCC2)c2n(c1=S)C[C@@H](c1c(F)c(F)cc(F)c1F)C2 [Example 318, (R)-3-(2-methyl-3-thioxo-6-(2,3,5,6-tetrafluorophenyl)-2,5,6,7-tetrahydro-3H-pyrrolo[1,2-c]imidazol-1-yl)-1-morpholinopropan-1-one]	88.4 % of control	61.4 % of control			
Cn1c(CC(=O)N2CCCCC2)c2n(c1=S)C[C@@]1(c3cc(Cl)ccc3F)C[C@@H]21 [Example 311, 2-((5aS,6aR)-5a-(5-chloro-2-fluorophenyl)-2-methyl-3-thioxo-2,3,5,5a,6,6a-hexahydrocyclopropa[3,4]pyrrolo[1,2-c]imidazol-1-yl)-1-(piperidin-1-yl)ethan-1-one]	87.2 % of control	21.6 % of control			
Cn1c(CC(=O)N[C@@H]2CCOC2)c2n(c1=S)C[C@H](c1c(F)ccc(Cl)c1F)C2 [Example 250, 2-((S)-6-(3-chloro-2,6-difluorophenyl)-2-methyl-3-thioxo-2,5,6,7-tetrahydro-3H-pyrrolo[1,2-c]imidazol-1-yl)-N—((R)-tetrahydrofuran-3-yl)acetamide]	46.1 % of control	7.3 % of control			
O=C(CCc1[nH]c(=S)n2c1C[C@H](c1c(F)c(F)cc(F)c1F)C2)N1CCCC1 [Example 204, (R)-1-(pyrrolidin-1-yl)-3-(6-(2,3,5,6-tetrafluorophenyl)-3-thioxo-2,5,6,7-tetrahydro-3H-pyrrolo[1,2-c]imidazol-1-yl)propan-1-one]	26.5 % of control	1.1 % of control			
O=C(Cc1[nH]c(=S)n2c1C[C@@H](c1c(F)ccc(Cl)c1F)C2)Nc1ccccn1 [Example 169, (S)-2-(6-(3-chloro-2,6-difluorophenyl)-3-thioxo-2,5,6,7-tetrahydro-3H-pyrrolo[1,2-c]imidazol-1-yl)-N-(pyridin-2-yl)acetamide]	59.3 % of control	17.1 % of control			
CN1C[C@@H](NC(=O)Cc2c3n(c(=S)n2C)C[C@H](c2c(F)ccc(Br)c2F)C3)CC1=O [Example 449, 2-((S)-6-(3-bromo-2,6-difluorophenyl)-2-methyl-3-thioxo-2,5,6,7-tetrahydro-3H-pyrrolo[1,2-c]imidazol-1-yl)-N—((S)-1-methyl-5-oxopyrrolidin-3-yl)acetamide]	27.8 % of control	2.3 % of control			
O=C(NCc1[nH]c(=S)n2c1C[C@@H](c1c(F)ccc(Cl)c1F)C2)C1CCOCC1 [Example 222, (S)—N-((6-(3-chloro-2,6-difluorophenyl)-3-thioxo-2,5,6,7-tetrahydro-3H-pyrrolo[1,2-c]imidazol-1-yl)methyl)tetrahydro-2H-pyran-4-carboxamide]	73.6 % of control	12.9 % of control			
CS(=O)(=O)CCNC(=O)Cc1[nH]c(=S)n2c1C[C@@H](c1c(F)ccc(Cl)c1F)C2 [Example 114, (S)-2-(6-(3-chloro-2,6-difluorophenyl)-3-thioxo-2,5,6,7-tetrahydro-3H-pyrrolo[1,2-c]imidazol-1-yl)-N-(2-(methylsulfonyl)ethyl)acetamide]	58.4 % of control	7.5 % of control			
CN(C(=O)Cc1c2n(c(=S)n1C)C[C@@]1(c3cc(Br)ccc3F)C[C@@H]21)C1CCOC1 (stereo partly drawn) [Example 440, 2-((5aS,6aR)-5a-(5-bromo-2-fluorophenyl)-2-methyl-3-thioxo-2,3,5,5a,6,6a-hexahydrocyclopropa[3,4]pyrrolo[1,2-c]imidazol-1-yl)-N-methyl-N-(tetrahydrofuran-3-yl)acetamide]	57.2 % of control	8.4 % of control			
O=C(Cc1[nH]c(=S)n2c1C[C@H](c1c(F)ccc(Br)c1F)C2)NC1CCOC1=O (stereo partly drawn) [Example 22, 2-((R)-6-(3-bromo-2,6-difluorophenyl)-3-thioxo-2,5,6,7-tetrahydro-3H-pyrrolo[1,2-c]imidazol-1-yl)-N-(2-oxotetrahydrofuran-3-yl)acetamide]		45.1 % of control	4.4 % of control		
O=C(Cc1[nH]c(=S)n2c1C[C@H](c1c(F)c(F)cc(F)c1F)C2)NC1CCOCC1 [Example 377, (R)—N-(tetrahydro-2H-pyran-4-yl)-2-(3-thioxo-6-(2,3,5,6-tetrafluorophenyl)-2,5,6,7-tetrahydro-3H-pyrrolo[1,2-c]imidazol-1-yl)acetamide]	102.0 % of control	56.8 % of control			
CN(C(=O)Cc1c2n(c(=S)n1C)C[C@@]1(c3cc(Cl)ccc3F)C[C@@H]21)C1CCOC1 (stereo partly drawn) [Example 441, 2-((5aS,6aR)-5a-(5-chloro-2-fluorophenyl)-2-methyl-3-thioxo-2,3,5,5a,6,6a-hexahydrocyclopropa[3,4]pyrrolo[1,2-c]imidazol-1-yl)-N-methyl-N-(tetrahydrofuran-3-yl)acetamide]	72.8 % of control	37.4 % of control			
Cn1c(CCC(=O)N2CCCC2)c2n(c1=S)C[C@@H](c1c(F)cccc1F)C2 [Example 264, (R)-3-(6-(2,6-difluorophenyl)-2-methyl-3-thioxo-2,5,6,7-tetrahydro-3H-pyrrolo[1,2-c]imidazol-1-yl)-1-(pyrrolidin-1-yl)propan-1-one]	98.4 % of control	54.2 % of control			

The remaining lines, values ahead:

Plasma (0.01 μM), activity in % of control (inhibitor 0.01 μM)	Plasma (0.1 μM), activity in % of control (inhibitor 0.1 μM)	Plasma (1 μM), activity in % of control	Plasma (0.01 μM), activity in % of control, re-test (asterisked) (inhibitor 0.01 μM, re-tested under the same experimental conditions, asterisked data believed to be correct)	Plasma (0.1 μM), activity in % of control, re-test (asterisked) (inhibitor 0.1 μM, re-tested under the same experimental conditions, asterisked data believed to be correct)	Structure (SMILES)
	21.6 % of control	1.8 % of control			COCCNC(=O)Cc1[nH]c(=S)n2c1C[C@@H](c1c(F)ccc(Br)c1F)C2 [Example 103, (S)-2-(6-(3-bromo-2,6-difluorophenyl)-3-thioxo-2,5,6,7-tetrahydro-3H-pyrrolo[1,2-c]imidazol-1-yl)-N-(2-methoxyethyl)acetamide]
107.9 % of control	29.8 % of control				Cn1c(CC(=O)N[C@@H]2CCOC2)c2n(c1=S)C[C@@]1(c3cc(Cl)ccc3F)C[C@@H]21 [Example 281, 2-((5aS,6aR)-5a-(5-chloro-2-fluorophenyl)-2-methyl-3-thioxo-2,3,5,5a,6,6a-hexahydrocyclopropa[3,4]pyrrolo[1,2-c]imidazol-1-yl)-N—((R)-tetrahydrofuran-3-yl)acetamide]
92.9 % of control	43.7 % of control				Cn1c(CC(=O)NCC2CCCO2)c2n(c1=S)C[C@@H](c1c(F)c(F)cc(F)c1F)C2 (stereo in doubt) [Example 387, 2-((R)-2-methyl-6-(2,3,5,6-tetrafluorophenyl)-3-thioxo-2,5,6,7-tetrahydro-3H-pyrrolo[1,2-c]imidazol-1-yl)-N—(((S)-tetrahydrofuran-2-yl)methyl)acetamide]
	5.4 % of control	1.5 % of control			Cl.O=C(Cc1[nH]c(=S)n2c1C[C@@H](c1c(F)ccc(Cl)c1F)C2)NCc1cccnc1 [Example 109, (S)-2-(6-(3-chloro-2,6-difluorophenyl)-3-thioxo-2,5,6,7-tetrahydro-3H-pyrrolo[1,2-c]imidazol-1-yl)-N-(pyridin-3-ylmethyl)acetamide Hydrochloride]
83.8 % of control	66.8 % of control		59.3* % of control	9.7* % of control	Cn1c(CC(=O)N2CCOCC2)c2n(c1=S)C[C@H](c1c(F)ccc(Br)c1F)C2 [Example 233, (S)-2-(6-(3-bromo-2,6-difluorophenyl)-2-methyl-3-thioxo-2,5,6,7-tetrahydro-3H-pyrrolo[1,2-c]imidazol-1-yl)-1-morpholinoethan-1-one]
109.1 % of control	72.1 % of control				Fc1ccc(Br)c(F)c1[C@H]1Cc2c(CCc3cccnc3)[nH]c(=S)n2C1 [Example 214, (R)-6-(3-bromo-2,6-difluorophenyl)-1-(2-(pyridin-3-yl)ethyl)-2,5,6,7-tetrahydro-3H-pyrrolo[1,2-c]imidazole-3-thione]
99.8 % of control	57.7 % of control				Cn1c(CCC(=O)Nc2ccccn2)c2n(c1=S)C[C@H](c1c(F)ccc(Cl)c1F)C2 [Example 268, (S)-3-(6-(3-chloro-2,6-difluorophenyl)-2-methyl-3-thioxo-2,5,6,7-tetrahydro-3H-pyrrolo[1,2-c]imidazol-1-yl)-N-(pyridin-2-yl)propanamide]
